Experimental data taken from patent publication US9120795B2, “Crystalline form of a β-lactamase inhibitor” (Cubist Pharmaceuticals, Inc., priority 2013, dated 2015).

System: Pae clinical, KPC-2
Test: Synergy MIC (sMIC) assay
Assay type: cell-based, Pseudomonas aeruginosa
Settings: KPC-2, clinical Pae; CXA-101 at 4 μg/mL
Protocol: The synergy MIC (sMIC) assay determines the concentration of the BLI required to potentiate the activity of a fixed concentration of a β-lactam antibiotic against β-lactamase producing bacterial strains. The experimental protocol was performed according to Clinical and Laboratory Standards Institute (CLSI) guidelines with modifications as described below (CLSI guidelines can be derived from the CLSI document M07-A9 published in January 2012: “Methods for Dilution Antimicrobial Susceptibility Tests for Bacteria That Grow Aerobically; Approved Standard-Ninth Edition”). […]
Plates were incubated for 18-20 hours at 37° C. with aeration (200 rpm). Following incubation, growth was confirmed visually placing plates over a viewing apparatus (stand with a mirror underneath) and then OD600 was measured using a SpectraMax 340PC384 plate reader (Molecular Devices, Sunnyvale, Calif.). Growth was defined as turbidity that could be detected with the naked eye or achieving minimum OD600 of 0.1. sMIC values were defined as the lowest concentration producing no visible turbidity. […]

Question: O=C1N2C[C@@H](CC[C@H]2c2nnco2)N1OS(=O)(=O)[O-].[Na+] [Hydrate 1, sodium (2S,5R)-2-(1,3,4-oxadiazol-2-yl)-7-oxo-1,6-diazabicyclo[3.2.1]octan-6-yl sulfate] was tested. Which sMIC did it give?
Answer: C (C = 4-8 μg/mL)
